The supplement of paper PMC11208160

experiment: recombinant barcode read abundance after kanamycin selection (control-corrected) (log10(CPM+1)); higher = more efficient recombination; sequences stand for … in AGTGCAGAGAAAATCGGCCAGTTTTCTCTGCCTGCAGTCCGCATGCCGT…AGATTTATGCAGCGGACTGCCTTTCTCCCAAAGTGATAAACCGGACAGTATCATGGACCGGTTTTCCCGGTAATCCGTATTTGCAAGGTTGGTTTCACT; site = the 11-nt target
Outline: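 A vector carrying a T7-inducible recombinase and the last 73 bp of the bridge RNA received, by Gibson cloning, oligos encoding a promoter, target, barcode and the first 104 bridge RNA bases under J23119. The pooled constructs entered E. coli together with a donor plasmid by electroporation. Selection used chloramphenicol/ampicillin/kanamycin with 0.1 mM IPTG, with chloramphenicol/ampicillin LB agar as the control, each in two replicates. Recombination efficiency is the averaged, control-corrected counts-per-million of barcodes at recombinant junctions, reported as log10(CPM+1).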
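Note: IS621 recombinase and bridge RNA in Escherichia coli cells.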

Q: Which “recombinant barcode read abundance (log10)” value does the source give for “TACCCTACTTGGGTTCTAACCTGTTGCCT (site AACCCTACTAG)” here?
A: The value was 0.0271.

Q: Which “recombinant barcode read abundance (log10)” value does the source give for “TCACGTCCTTGGGTTCTAACCTGTTGCAT (site TCACGTCCTAC)” here?
A: The value was 0.187.

Q: With “TACACAGCTTGGGTTCTAACCTGTTGCCT (site TAAACAGCTAG)” as the sequence, how does the “recombinant barcode read abundance (log10)” value read?
A: The value was 0.176.

Q: Which “recombinant barcode read abundance (log10)” value does the source give for “AATTAAGCTTGGGTTCTAACCTGTTGCCT (site AATTCAGCTAG)” here?
A: The value was 0.159.

Q: With “TCAGAGGCTTGGGTTCTAACCTGTTGCTG (site TCAGAGGCTCA)” as the sequence, how does the “recombinant barcode read abundance (log10)” value read?
A: Its value is 0.623.

Q: For “AGCTAAACTTGGGTTCTAACCTGTTGCCT (site AGCTAAACTAG)”, which “recombinant barcode read abundance (log10)” value is on record?
A: The value was 0.256.

Q: Which “recombinant barcode read abundance (log10)” value does the source give for “CGTCATCCTTGGGTTCTAACCTGTTGCCT (site CGTCACCCTAG)” here?
A: Its value is 0.0927.

Q: For “AACTTCTCTTGGGTTCTAACCTGTTGCCT (site AACTTCCCTAG)”, which “recombinant barcode read abundance (log10)” value is on record?
A: Its value is 0.242.

Q: For “TAGGCCACTTGGGTTCTAACCTGTTGCAT (site TAGGCCACTAA)”, which “recombinant barcode read abundance (log10)” value is on record?
A: The value was 0.071.

Q: With “TGCTGTCCTTGGGTTCTAACCTGTTGCTT (site TGCTGTCCTAA)” as the sequence, how does the “recombinant barcode read abundance (log10)” value read?
A: Its value is 0.00473.

Q: For “ATACTACCTTGGGTTCTAACCTGTTGCGG (site ATACTACCTCC)”, which “recombinant barcode read abundance (log10)” value is on record?
A: The value was 1.4.

Q: For “GAGTAGTCTTGGGTTCTAACCTGTTGCTT (site GAGTAGTCTAA)”, which “recombinant barcode read abundance (log10)” value is on record?
A: Its value is 2.05.

Q: For “CCTCGGGCTTGGGTTCTAACCTGTTGCAG (site CGTCGGGCTCT)”, which “recombinant barcode read abundance (log10)” value is on record?
A: Its value is 0.011.

Q: With “CGCAGCTCTTGGGTTCTAACCTGTTGCCT (site CGGAGCTCTAG)” as the sequence, how does the “recombinant barcode read abundance (log10)” value read?
A: The value was 0.0445.

Q: With “CAGGTGCCTTGGGTTCTAACCTGTTGCCT (site CGGGTGCCTAG)” as the sequence, how does the “recombinant barcode read abundance (log10)” value read?
A: The value was 0.122.

Q: For “GAGATTCCTTGGGTTCTAACCTGTTGCCT (site GAGATTCCTAG)”, which “recombinant barcode read abundance (log10)” value is on record?
A: The value was 0.399.

Q: For “AAGCGTCCTTGGGTTCTAACCTGTTGCCT (site AAGCGTGCTAG)”, which “recombinant barcode read abundance (log10)” value is on record?
A: Its value is 0.583.

Q: With “TAGAAGACTTGGGTTCTAACCTGTTGCTG (site TAGAAGACTGA)” as the sequence, how does the “recombinant barcode read abundance (log10)” value read?
A: Its value is 0.315.

Q: For “TGGTCTACTTGGGTTCTAACCTGTTGCTT (site TGTTCTACTAA)”, which “recombinant barcode read abundance (log10)” value is on record?
A: Its value is 0.0113.

Q: Which “recombinant barcode read abundance (log10)” value does the source give for “CGGGACCCTTGGGTTCTAACCTGTTGCCT (site CGTGACCCTAA)” here?
A: The value was 0.634.

Q: For “ACTAGACCTTGGGTTCTAACCTGTTGCCT (site ACTCGACCTAG)”, which “recombinant barcode read abundance (log10)” value is on record?
A: The value was 0.134.

Q: With “TACAAGCCTTGGGTTCTAACCTGTTGCCT (site TAGAAGCCTCG)” as the sequence, how does the “recombinant barcode read abundance (log10)” value read?
A: The value was 0.0913.

Q: Which “recombinant barcode read abundance (log10)” value does the source give for “AGGAGCCCTTGGGTTCTAACCTGTTGCTG (site AGGAGCCCTCA)” here?
A: Its value is 1.75.

Q: With “TGCGCGACTTGGGTTCTAACCTGTTGCCT (site TGCGCGACTAG)” as the sequence, how does the “recombinant barcode read abundance (log10)” value read?
A: The value was 0.032.

Q: Which “recombinant barcode read abundance (log10)” value does the source give for “GTGATGTCTTGGGTTCTAACCTGTTGCCT (site GCGATGTCTAG)” here?
A: The value was 0.321.

Q: With “CAAACACCTTGGGTTCTAACCTGTTGCCT (site CAAACAACTAG)” as the sequence, how does the “recombinant barcode read abundance (log10)” value read?
A: The value was 0.0738.

Q: For “TCGCGTCCTTGGGTTCTAACCTGTTGCAA (site TAGCGTCCTGT)”, which “recombinant barcode read abundance (log10)” value is on record?
A: The value was 0.119.

Q: With “AGACTAACTTGGGTTCTAACCTGTTGCCT (site AAACTAACTAG)” as the sequence, how does the “recombinant barcode read abundance (log10)” value read?
A: Its value is 0.124.

Q: Which “recombinant barcode read abundance (log10)” value does the source give for “CTCTAGCCTTGGGTTCTAACCTGTTGCAT (site CTCTAGCCTAT)” here?
A: The value was 0.505.

Q: For “GAAACGTCTTGGGTTCTAACCTGTTGCCT (site GAAACGTCTAG)”, which “recombinant barcode read abundance (log10)” value is on record?
A: Its value is 1.65.

Q: With “CTCGGATCTTGGGTTCTAACCTGTTGCCT (site CTCGGAACTAG)” as the sequence, how does the “recombinant barcode read abundance (log10)” value read?
A: Its value is 0.0461.

Q: With “ACCCAATCTTGGGTTCTAACCTGTTGCCT (site ACCCAACCTAG)” as the sequence, how does the “recombinant barcode read abundance (log10)” value read?
A: The value was 0.0978.

Q: With “CTCGGATCTTGGGTTCTAACCTGTTGCTG (site CTCGGATCTGA)” as the sequence, how does the “recombinant barcode read abundance (log10)” value read?
A: Its value is 0.

Q: For “CACCACTCTTGGGTTCTAACCTGTTGCCT (site GACCACTCTAG)”, which “recombinant barcode read abundance (log10)” value is on record?
A: Its value is 0.108.

Q: Which “recombinant barcode read abundance (log10)” value does the source give for “GACACGTCTTGGGTTCTAACCTGTTGCCT (site GACACGTCTAG)” here?
A: The value was 0.534.

Q: With “TTGATAGCTTGGGTTCTAACCTGTTGCTA (site TTGATAGCTTA)” as the sequence, how does the “recombinant barcode read abundance (log10)” value read?
A: The value was 0.203.
